COc1cc(Cc2cnc(N)nc2N)cc(OC)c1OC
Conditions | solubility (mole fraction)
in THF, 276.05 K | 0.000608
in THF, 281.81 K | 0.000714
in THF, 287.31 K | 0.000857
in THF, 292.65 K | 0.000987
in THF, 298.08 K | 0.00117
in THF, 303.12 K | 0.00137
in THF, 306.95 K | 0.00155
in THF, 311.69 K | 0.00178
in THF, 316.74 K | 0.00208
in THF, 321.34 K | 0.00244
in THF, 326.91 K | 0.00296
in THF, 333.87 K | 0.00377
in acetone, 276.94 K | 0.000456
in acetone, 282.12 K | 0.00054
in acetone, 288.62 K | 0.000664
in acetone, 292.94 K | 0.00076
in acetone, 297.96 K | 0.00089
in acetone, 304.17 K | 0.00108
in acetone, 309.34 K | 0.00128
in acetone, 314.34 K | 0.00149
in acetone, 319.07 K | 0.00173
in acetone, 323.51 K | 0.00199
in ethanol, 281.15 K | 0.000356
in ethanol, 287.25 K | 0.000461
in ethanol, 292.64 K | 0.000545
in ethanol, 297.95 K | 0.000681
in ethanol, 302.05 K | 0.000833
in ethanol, 307.85 K | 0.00105
in ethanol, 311.35 K | 0.00124
in ethanol, 315.24 K | 0.00151
in ethanol, 318.85 K | 0.00177
in ethanol, 323.95 K | 0.00223
in ethanol, 326.65 K | 0.00255
in ethanol, 330.66 K | 0.00309
in ethanol, 335.25 K | 0.00388
in isopropanol, 277.17 K | 0.000109
in isopropanol, 282.82 K | 0.000156
in isopropanol, 288.28 K | 0.000202
in isopropanol, 293.13 K | 0.000255
in isopropanol, 297.57 K | 0.000322
in isopropanol, 304.04 K | 0.000468
in isopropanol, 309.36 K | 0.000644
in isopropanol, 315.13 K | 0.00091
in isopropanol, 319.53 K | 0.00117
in isopropanol, 324.04 K | 0.00151
in isopropanol, 328.37 K | 0.0019
in isopropanol, 333.64 K | 0.00247
in methanol, 277.02 K | 0.000828
in methanol, 282.85 K | 0.001
in methanol, 288.09 K | 0.0012
in methanol, 293.03 K | 0.00143
in methanol, 298.17 K | 0.00173
in methanol, 304.24 K | 0.00217
in methanol, 309.36 K | 0.00265
in methanol, 314.12 K | 0.0032
in methanol, 319.06 K | 0.00392
in methanol, 323.53 K | 0.00471
in methanol, 328.15 K | 0.00571
in methanol, 333.73 K | 0.0072
in n-butanol, 276.35 K | 0.000157
in n-butanol, 282.63 K | 0.000254
in n-butanol, 287.96 K | 0.000359
in n-butanol, 292.84 K | 0.000473
in n-butanol, 298.46 K | 0.000635
in n-butanol, 303.72 K | 0.000844
in n-butanol, 308.84 K | 0.00106
in n-butanol, 313.36 K | 0.00133
in n-butanol, 318.45 K | 0.00175
in n-butanol, 323.73 K | 0.00235
in n-butanol, 329.21 K | 0.00306
in n-butanol, 333.73 K | 0.00386
in n-propanol, 277.35 K | 0.000278
in n-propanol, 283.63 K | 0.000328
in n-propanol, 288.97 K | 0.000414
in n-propanol, 294.05 K | 0.000531
in n-propanol, 298.93 K | 0.000677
in n-propanol, 303.84 K | 0.000866
in n-propanol, 308.44 K | 0.00109
in n-propanol, 314.54 K | 0.00148
in n-propanol, 319.17 K | 0.00186
in n-propanol, 323.48 K | 0.00231
in n-propanol, 328.57 K | 0.00298
in n-propanol, 334.15 K | 0.00392
in sec-butanol, 276.85 K | 0.000153
in sec-butanol, 283.66 K | 0.000179
in sec-butanol, 290.08 K | 0.0003
in sec-butanol, 294.67 K | 0.000422
in sec-butanol, 298.45 K | 0.000562
in sec-butanol, 303.74 K | 0.000758
in sec-butanol, 308.84 K | 0.00101
in sec-butanol, 313.35 K | 0.00131
in sec-butanol, 318.46 K | 0.00172
in sec-butanol, 323.56 K | 0.00231
in sec-butanol, 328.66 K | 0.0029
in sec-butanol, 333.74 K | 0.00377

— BigSolDB 2.1
